Measured values: the supplement of paper PMC10307832

Columns and labels:
Experiment in all cases: relative viability (nuclei count vs DMSO), 5 days (fraction); higher = more cells survive
[1] = compound: CC(O)(CS(=O)(=O)c1ccc(F)cc1)C(=O)Nc1ccc(C#N)c(C(F)(F)F)c1 [Bicalutamide] + C[C@@H](Oc1cc(-c2cnn(C3CCNCC3)c2)cnc1N)c1c(Cl)ccc(F)c1Cl [Crizotinib] (partner 1 µM)
How it was run: (§1)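 Dosing by pin tool came one day after lung cancer cell lines were seeded in 1536-well plates, using either one drug or a fixed anchor-drug dose plus five library-drug doses (not always all listed) in √10 steps. After 5 days, nuclei were counted on 4× images. Relative viability is treated-well nuclei count divided by vehicle-well nuclei count, and values are medians of duplicate plates.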

Bicalutamide + Foretinib = compound: CC(O)(CS(=O)(=O)c1ccc(F)cc1)C(=O)Nc1ccc(C#N)c(C(F)(F)F)c1 [Bicalutamide] + COc1cc2c(Oc3ccc(NC(=O)C4(C(=O)Nc5ccc(F)cc5)CC4)cc3F)ccnc2cc1OCCCN1CCOCC1 [Foretinib] (partner 0.25 µM)
How it was run: as §1

Bromopyruvate + Olaparib = compound: C(C(=O)C(=O)O)Br [Bromopyruvate] + O=C(c1cc(Cc2n[nH]c(=O)c3ccccc23)ccc1F)N1CCN(C(=O)C2CC2)CC1 [Olaparib] (partner 8 µM)
How it was run: as §1

Bromopyruvate + AZD7762 = compound: C(C(=O)C(=O)O)Br [Bromopyruvate] + NC(=O)Nc1cc(-c2cccc(F)c2)sc1C(=O)N[C@H]1CCCNC1 [AZD7762] (partner 0.2 µM)
How it was run: as §1

Row | Cell Line | relative viability ([1]; first compound 0.08 µM) | relative viability ([1]; first compound 0.253 µM) | relative viability ([1]; first compound 0.8 µM) | relative viability ([1]; first compound 2.53 µM) | relative viability (Bicalutamide + Foretinib; first compound 0.08 µM) | relative viability (Bicalutamide + Foretinib; first compound 0.253 µM) | relative viability (Bicalutamide + Foretinib; first compound 0.8 µM) | relative viability (Bicalutamide + Foretinib; first compound 2.53 µM) | relative viability (Bromopyruvate + Olaparib; first compound 1 µM) | relative viability (Bromopyruvate + Olaparib; first compound 3.162 µM) | relative viability (Bromopyruvate + Olaparib; first compound 10 µM) | relative viability (Bromopyruvate + Olaparib; first compound 31.62 µM) | relative viability (Bromopyruvate + Olaparib; first compound 100 µM) | relative viability (Bromopyruvate + AZD7762; first compound 1 µM) | relative viability (Bromopyruvate + AZD7762; first compound 3.162 µM) | relative viability (Bromopyruvate + AZD7762; first compound 10 µM) | relative viability (Bromopyruvate + AZD7762; first compound 31.62 µM) | relative viability (Bromopyruvate + AZD7762; first compound 100 µM)
1 | 201T | 1.04 | 0.942 | 1.01 | 1.06 | 1.01 | 1.02 | 0.892 | 1.09 | 0.862 | 0.824 | 0.86 | 0.84 | 0.88 | 0.638 | 0.715 | 0.6 | 0.594 | 0.603
2 | A549 | 0.738 | 0.708 | 0.917 | 0.485 | 0.907 | 1.02 | 1.01 | 0.927 |  | 0.286 | 0.403 | 0.356 | 0.3 |  |  |  |  | 
3 | A-427 | 0.934 | 0.967 | 0.915 | 0.804 | 1.08 | 1.03 | 1.09 | 1.05 | 0.664 | 0.758 | 0.782 | 0.693 | 0.774 | 0.782 | 0.747 | 0.883 | 0.66 | 0.755
4 | ABC-1 | 1.15 | 1.09 | 1.16 | 0.848 | 0.987 | 1.05 | 1.18 | 1.24 | 0.775 |  |  |  | 0.566 | 0.532 | 0.995 | 0.951 | 0.834 | 0.734
5 | BEN | 0.773 | 0.778 | 1.14 | 0.866 | 0.604 | 0.609 | 0.791 | 0.682 | 0.96 | 0.994 | 1.46 | 1.03 | 0.99 | 0.806 | 0.662 | 0.743 | 0.613 | 0.619
6 | CAL-12T | 0.785 | 0.556 | 0.67 | 0.396 | 1.11 | 1.04 | 1.32 | 1.13 | 0.654 | 0.661 | 0.697 | 0.725 | 0.65 | 0.633 | 0.588 | 0.611 | 0.568 | 0.637
7 | COR-L23 | 0.678 | 0.552 | 0.703 | 0.449 | 1.04 | 0.981 | 1.12 | 1.02 | 0.398 | 0.342 | 0.349 | 0.319 | 0.129 |  |  |  |  | 
8 | COR-L 105 | 0.874 | 0.728 | 0.661 | 0.448 | 1.35 | 0.976 | 0.859 | 0.784 | 0.771 | 0.71 | 0.642 | 0.504 | 0.429 |  |  |  |  | 
9 | Calu-6 | 0.865 | 0.795 | 0.914 | 0.727 | 0.931 | 0.916 | 0.853 | 0.843 | 0.579 | 0.581 | 0.686 | 0.55 | 0.417 |  |  |  |  | 
10 | ChaGo-K-1 | 1.27 | 1.1 | 1.16 | 1.03 | 0.897 | 0.748 | 0.937 | 0.825 | 0.417 | 0.466 | 0.431 | 0.344 | 0.301 | 0.881 | 0.868 | 0.874 | 0.866 | 0.92
11 | EBC-1 | 0.166 | 0.185 | 0.186 | 0.185 | 0.0878 | 0.115 | 0.0994 | 0.121 | 0.691 | 0.594 | 0.741 | 0.617 | 0.564 |  |  |  |  | 
12 | EKVX | 0.924 | 0.81 | 1.14 | 0.801 | 0.749 | 0.757 | 0.95 | 0.752 | 0.73 | 0.87 | 0.843 | 0.861 | 0.874 | 0.818 | 0.791 | 0.662 | 0.61 | 0.693
13 | EMC-BAC-2 | 0.781 | 0.716 | 0.904 | 0.586 | 1.02 | 0.867 | 1.02 | 0.928 | 0.499 | 0.481 | 0.408 | 0.516 | 0.458 | 1.04 | 1.16 | 1.09 | 1.04 | 1.1
14 | EPLC-272H | 0.947 | 0.898 | 1.01 | 0.833 | 0.606 | 0.841 | 0.817 | 0.679 | 0.783 | 0.885 | 0.971 | 0.932 | 0.699 | 0.236 | 0.205 | 0.346 | 0.313 | 0.258
15 | H3255 | 0.963 | 0.845 | 1.05 | 0.719 | 0.901 | 0.827 |  | 0.84 | 0.579 | 0.591 | 0.558 | 0.563 | 0.571 | 0.907 | 0.86 | 0.964 | 0.886 | 0.836
16 | HARA | 0.946 | 1.07 | 1.19 | 1.09 | 0.931 | 0.836 | 1.17 | 0.897 | 0.836 | 1.45 |  | 0.632 | 0.738 | 1.98 | 0.393 |  | 0.298 | 0.289
